Test results reported in publication PMC10791743, “Selective CK1α degraders exert antiproliferative activity against a broad range of human cancer cell lines” (Nature Communications, 2024).

Experiments:
Test in all cases: cells
Design in all cases: Oncolines panel cell viability, ATPlite 1Step luminescence, duplicate 9-point dose response, IC50
[1] = system: MIA PaCa-2; conditions: Homo sapiens, MIA PaCa-2; 72 h viability; read-out: SJ3149
[2] = system: J82; conditions: Homo sapiens, J82; 72 h viability; read-out: SJ3149
[3] = system: U-2 OS; conditions: Homo sapiens, U2OS; 72 h viability; read-out: SJ3149
[4] = system: HCT 116; conditions: Homo sapiens, HCT-116; 72 h viability; read-out: SJ3149
[5] = system: NCI-H460; conditions: Homo sapiens, NCI-H460; 72 h viability; read-out: SJ3149
[6] = system: PC-3; conditions: Homo sapiens, PC-3; 72 h viability; read-out: SJ3149
[7] = system: THP-1; conditions: Homo sapiens, THP-1; 72 h viability; read-out: SJ3149
[8] = system: U-118 MG; conditions: Homo sapiens, U-118-MG; 72 h viability; read-out: SJ3149
[9] = system: SW480; conditions: Homo sapiens, SW480; 72 h viability; read-out: SJ3149
[10] = system: CAL 27; conditions: Homo sapiens, CAL-27; 72 h viability; read-out: SJ3149
[11] = system: OVCAR-3; conditions: Homo sapiens, OVCAR-3; 72 h viability; read-out: SJ3149
[12] = system: A-704; conditions: Homo sapiens, A704; 72 h viability; read-out: SJ3149
[13] = system: DB; conditions: Homo sapiens, DB; 72 h viability; read-out: SJ3149
[14] = system: LS411N; conditions: Homo sapiens, LS-411N; 72 h viability; read-out: SJ3149

Measured: IC50

O=C1CCC(N2Cc3cc(Nc4noc5ccccc45)ccc3C2=O)C(=O)N1 (centres unmarked) [SJ3149]
> 31.6 µM: all assays above
